Experimental data: patent publication US4795743A, “2'-deamino-2'-hydroxyistamycin Bo derivatives of low toxicity” (Zaidan Hojin Biseibutsu Kagaku Kenkyu Kai, priority 1986, dated 1989)
Values after ≈ are worked out from the molar mass of the structure shown. Like-named read-outs stand apart in the source and are kept apart here.

How the values were obtained:
[1] = system: Staphylococcus aureus 209P; experiment: Antibacterial spectrum, standard serial dilution method of Japan Society of Chemotherapy; format: cell-based; details: read-out: Minimum Growth Inhibitory Concentration
[2] = system: Staphylococcus aureus Smith; experiment: Antibacterial spectrum, standard serial dilution method; format: cell-based; details: read-out: Minimum Growth Inhibitory Concentration
[3] = system: Bacillus subtilis NRRL B-558; experiment: as above; format: cell-based; details: read-out: Minimum Growth Inhibitory Concentration
[4] = system: Mycobacterium smegmatis ATCC 607; experiment: as above; format: cell-based; details: Mycolicibacterium smegmatis, read-out: Minimum Growth Inhibitory Concentration
Escherichia coli K-12 R5 = experiment: as above; format: cell-based; details: K12R5, 18 h, read-out: Minimum Growth Inhibitory Concentration
[5] = system: Escherichia coli K-12 J5 R11-2; experiment: as above; format: cell-based; details: K12J5R112, 18 h, read-out: Minimum Growth Inhibitory Concentration
[6] = system: Escherichia coli K-12 ML1630; experiment: as above; format: cell-based; details: K12ML1630, E. coli K-12 ML1630, Muller-Hinton medium, 37° C., 18 hours, read-out: Minimum Growth Inhibitory Concentration
[7] = system: Escherichia coli K-12 LA290 R55; experiment: as above; format: cell-based; details: K12LA290R55, 18 h, read-out: Minimum Growth Inhibitory Concentration
[8] = system: Escherichia coli K-12 LA290 R56; experiment: as above; format: cell-based; details: K12LA290R56, 18 h, read-out: Minimum Growth Inhibitory Concentration
[9] = system: Escherichia coli K-12 LA290 R64; experiment: as above; format: cell-based; details: K12LA290R64, 18 h, read-out: Minimum Growth Inhibitory Concentration
Escherichia coli W677 = experiment: as above; format: cell-based; details: read-out: Minimum Growth Inhibitory Concentration
[10] = system: Escherichia coli JR66/W677; experiment: as above; format: cell-based; details: read-out: Minimum Growth Inhibitory Concentration
[11] = system: Escherichia coli K-12 C600 R135; experiment: as above; format: cell-based; details: K12C600R135, E. coli K-12 C600 R135, Muller-Hinton medium, 37° C., 18 hours, read-out: Minimum Growth Inhibitory Concentration
[12] = system: Shigella dysernteriae JS11910; experiment: as above; format: cell-based; details: Muller-Hinton medium, 37° C., 18 hours, read-out: Minimum Growth Inhibitory Concentration
Proteus vulgaris OX19 = experiment: as above; format: cell-based; details: read-out: Minimum Growth Inhibitory Concentration
Proteus rettgeri GN311 = experiment: as above; format: cell-based; details: Providencia rettgeri, read-out: Minimum Growth Inhibitory Concentration
Serratia marcescens = experiment: as above; format: cell-based; details: read-out: Minimum Growth Inhibitory Concentration
Providencia sp. Pv16 = experiment: as above; format: cell-based; details: read-out: Minimum Growth Inhibitory Concentration
Providencia sp. 2991 = experiment: as above; format: cell-based; details: read-out: Minimum Growth Inhibitory Concentration
[13] = system: Pseudomonas aeruguinosa H11; experiment: as above; format: cell-based, Pseudomonas aeruginosa; details: Muller-Hinton medium, 37° C., 18 hours, read-out: Minimum Growth Inhibitory Concentration
[14] = system: Pseudomonas aeruguinosa B-13; experiment: as above; format: cell-based, Pseudomonas aeruginosa; details: B13, Muller-Hinton medium, 37° C., 18 hours, read-out: Minimum Growth Inhibitory Concentration
[15] = system: Pseudomonas aeruguinosa ROS 134/PU21; experiment: as above; format: cell-based, Pseudomonas aeruginosa; details: ROS134/PU21, 18 h, read-out: Minimum Growth Inhibitory Concentration
[16] = system: Pseudomonas maltophilia GN907; experiment: as above; format: cell-based; details: Stenotrophomonas maltophilia, Muller-Hinton medium, 37° C., 18 hours, read-out: Minimum Growth Inhibitory Concentration
mice = experiment: Acute toxicity by intravenous injection in mice; details: for acute toxicity (survival, symptoms): mice, intravenous injection, 200 mg/kg
[17] = system: gram-negative and gram-positive bacteria; experiment: Antibacterial activity, overall result in words; format: cell-based; details: overall statement in words
[18] = system: resistant bacteria, Pseudomonas aeruginosa, resistant strains of gram-negative and gram-positive bacteria; details: background, earlier filings; cited from earlier work
[19] = S. aureus 209P, Muller-Hinton medium, 37° C., 18 hours
[20] = S. aureus Smith, Muller-Hinton medium, 37° C., 18 hours
[21] = NRRLB558, Bacillus subtilis NRRL B-558, Muller-Hinton medium, 37° C., 18 hours
[22] = ATCC607, Mycobacterium smegmatis ATCC 607, Muller-Hinton medium, 37° C., 18 hours
[23] = E. coli JR66/W677, Muller-Hinton medium, 37° C., 18 hours
[24] = Proteus vulgaris OX19, Muller-Hinton medium, 37° C., 18 hours
[25] = E. coli W677, Muller-Hinton medium, 37° C., 18 hours
[26] = Providencia sp. Pv16, Muller-Hinton medium, 37° C., 18 hours
[27] = Proteus rettgeri GN311, Muller-Hinton medium, 37° C., 18 hours

| Compound | MIC [1, 19] | MIC [3, 21] | MIC [4, 22] | MIC (Escherichia coli K-12 R5) | MIC [5] | MIC [6] | MIC [7] | MIC [8] | MIC [9] | MIC (Escherichia coli W677; W677, 18 h) | MIC [11] | MIC [12] | MIC (Proteus rettgeri GN311; GN311, 18 h) | MIC (Serratia marcescens; 18 h) | MIC (Providencia sp. 2991; Providencia, SP.2991, 18 h) | MIC [13] | MIC [14] | MIC [15] | MIC [16] | acute toxicity (survival, symptoms) (mice) | other results |
| --- | --- | --- | --- | --- | --- | --- | --- | --- | --- | --- | --- | --- | --- | --- | --- | --- | --- | --- | --- | --- | --- |
| CNCC1CCC(O)C(OC2C(N)CC(OC)C(N(C)C(=O)CN)C2O)O1 (stereo not drawn) [Compound No. 1, 2'-Deamino-2'-hydroxyistamycin B] | 3.13 µg/mL (≈ 8.02 µM) | 3.13 µg/mL (≈ 8.02 µM) | 25 µg/mL (≈ 64 µM) | 3.13 µg/mL (≈ 8.02 µM) | 1.56 µg/mL (≈ 4 µM) | 6.25 µg/mL (≈ 16 µM) | 6.25 µg/mL (≈ 16 µM) | 3.13 µg/mL (≈ 8.02 µM) | 3.13 µg/mL (≈ 8.02 µM) | 1.56 µg/mL (≈ 4 µM) | 3.13 µg/mL (≈ 8.02 µM) | 6.25 µg/mL (≈ 16 µM) | 6.25 µg/mL (≈ 16 µM) | 12.5 µg/mL (≈ 32 µM) | 12.5 µg/mL (≈ 32 µM) | > 100 µg/mL | > 100 µg/mL | > 100 µg/mL | > 100 µg/mL | survived without showing any sympton of toxicity | MIC [2, 20]: 3.13 µg/mL (≈ 8.02 µM); MIC [10, 23]: 3.13 µg/mL (≈ 8.02 µM); MIC (Proteus vulgaris OX19; [24]): 3.13 µg/mL (≈ 8.02 µM); MIC (Providencia sp. Pv16; Providencia, SP.PV16, 18 h): 6.25 µg/mL (≈ 16 µM) |
| CNCC1CCC(O)C(OC2C(N)CC(O)C(N(C)C(=O)CN)C2O)O1 (stereo not drawn) [Compound No. 2, 2'-Deamino-2'-hydroxy-3-O-demethylistamycin B] | 3.13 µg/mL (≈ 8.31 µM) | 3.13 µg/mL (≈ 8.31 µM) | – | 3.13 µg/mL (≈ 8.31 µM) | 1.56 µg/mL (≈ 4.14 µM) | 6.25 µg/mL (≈ 16.6 µM) | 6.25 µg/mL (≈ 16.6 µM) | 3.13 µg/mL (≈ 8.31 µM) | 3.13 µg/mL (≈ 8.31 µM) | – | 3.13 µg/mL (≈ 8.31 µM) | 12.5 µg/mL (≈ 33.2 µM) | 1.56 µg/mL (≈ 4.14 µM) | 12.5 µg/mL (≈ 33.2 µM) | 6.25 µg/mL (≈ 16.6 µM) | 25 µg/mL (≈ 66.4 µM) | 25 µg/mL (≈ 66.4 µM) | 50 µg/mL (≈ 133 µM) | > 100 µg/mL | survived without showing any sympton of toxicity | MIC ([2]; 18 h): 1.56 µg/mL (≈ 4.14 µM); MIC ([4]; ATCC607, 18 h): 6.25 µg/mL (≈ 16.6 µM); MIC (Escherichia coli W677; [25]): 3.13 µg/mL (≈ 8.31 µM); MIC ([10]; JR66/W677, 18 h): 6.25 µg/mL (≈ 16.6 µM); MIC (Proteus vulgaris OX19; Proteus vulgaris, OX19, 18 h): 1.56 µg/mL (≈ 4.14 µM); MIC (Providencia sp. Pv16; [26]): 3.13 µg/mL (≈ 8.31 µM) |
| CNCC1CCC(O)C(OC2C(N)CC(OC)C(N(C)C(=O)CCN)C2O)O1 (stereo not drawn) [Compound No. 3, 4-N-(β-Alanyl)-2'-deamino-2'-hydroxyistamycin Bo] | – | – | 25 µg/mL (≈ 61.8 µM) | 3.13 µg/mL (≈ 7.74 µM) | 3.13 µg/mL (≈ 7.74 µM) | 12.5 µg/mL (≈ 30.9 µM) | 12.5 µg/mL (≈ 30.9 µM) | 3.13 µg/mL (≈ 7.74 µM) | 3.13 µg/mL (≈ 7.74 µM) | 3.13 µg/mL (≈ 7.74 µM) | 3.13 µg/mL (≈ 7.74 µM) | 3.13 µg/mL (≈ 7.74 µM) | 3.13 µg/mL (≈ 7.74 µM) | 6.25 µg/mL (≈ 15.5 µM) | – | 100 µg/mL (≈ 247 µM) | 100 µg/mL (≈ 247 µM) | > 100 µg/mL | > 100 µg/mL | survived without showing any sympton of toxicity | MIC ([1]; 209P, 18 h): 6.25 µg/mL (≈ 15.5 µM); MIC ([2]; 18 h): 3.13 µg/mL (≈ 7.74 µM); MIC ([3]; Bacillus subtilis, NRRLB558, 18 h): 3.13 µg/mL (≈ 7.74 µM); MIC ([10]; JR66/W677, 18 h): 6.25 µg/mL (≈ 15.5 µM); MIC (Proteus vulgaris OX19; Proteus vulgaris, OX19, 18 h): 3.13 µg/mL (≈ 7.74 µM); MIC (Providencia sp. Pv16; Providencia, SP.PV16, 18 h): 3.13 µg/mL (≈ 7.74 µM); MIC (Providencia sp. 2991; Providencia sp. 2991, Muller-Hinton medium, 37° C., 18 hours): 12.5 µg/mL (≈ 30.9 µM) |
| CNCC1CCC(O)C(OC2C(N)CC(O)C(N(C)C(=O)CCN)C2O)O1 (stereo not drawn) [Compound No. 4, 4-N-(β-Alanyl)-2'-deamino-2'-hydroxy-3-O-demethylistamycin Bo] | – | 0.78 µg/mL (≈ 2 µM) | – | 1.56 µg/mL (≈ 4 µM) | 0.78 µg/mL (≈ 2 µM) | 6.25 µg/mL (≈ 16 µM) | 6.25 µg/mL (≈ 16 µM) | 3.13 µg/mL (≈ 8.02 µM) | 1.56 µg/mL (≈ 4 µM) | 1.56 µg/mL (≈ 4 µM) | 3.13 µg/mL (≈ 8.02 µM) | 3.13 µg/mL (≈ 8.02 µM) | – | 3.13 µg/mL (≈ 8.02 µM) | 3.13 µg/mL (≈ 8.02 µM) | 12.5 µg/mL (≈ 32 µM) | 12.5 µg/mL (≈ 32 µM) | 100 µg/mL (≈ 256 µM) | > 100 µg/mL | survived without showing any sympton of toxicity | MIC ([1]; 209P, 18 h): 1.56 µg/mL (≈ 4 µM); MIC ([2]; 18 h): 1.56 µg/mL (≈ 4 µM); MIC ([4]; ATCC607, 18 h): 6.25 µg/mL (≈ 16 µM); MIC ([10]; JR66/W677, 18 h): 3.13 µg/mL (≈ 8.02 µM); MIC (Proteus vulgaris OX19; Proteus vulgaris, OX19, 18 h): 1.56 µg/mL (≈ 4 µM); MIC (Proteus rettgeri GN311; [27]): 0.78 µg/mL (≈ 2 µM); MIC (Providencia sp. Pv16; Providencia, SP.PV16, 18 h): 1.56 µg/mL (≈ 4 µM); antibacterial activity [17]: very much good antibacterial activity; antibacterial activity ([17]; listed as 4-N-(β-alanyl)-2'-deamino-2'-hydroxy-3-O-demethylistamycin Bo): antibacterial activity as high as that of istamycin B; toxicity (mice; overall statement, comparison with istamycin B or low toxicity): lower toxicity than itstamycin B |
| CNCC1CCC(N)C(OC2C(N)CC(OC)C(N(C)C(=O)CN)C2O)O1 (stereo not drawn) [Istamycin B, istamycin B] | 0.78 µg/mL (≈ 2 µM) | 0.78 µg/mL (≈ 2 µM) | 0.78 µg/mL (≈ 2 µM) | 0.78 µg/mL (≈ 2 µM) | 0.78 µg/mL (≈ 2 µM) | 6.25 µg/mL (≈ 16 µM) | 3.13 µg/mL (≈ 8.04 µM) | 0.78 µg/mL (≈ 2 µM) | 1.56 µg/mL (≈ 4.01 µM) | – | 12.5 µg/mL (≈ 32.1 µM) | 3.13 µg/mL (≈ 8.04 µM) | – | – | 3.13 µg/mL (≈ 8.04 µM) | 50 µg/mL (≈ 128 µM) | > 100 µg/mL | > 100 µg/mL | > 100 µg/mL | – | MIC [2, 20]: 0.39 µg/mL (≈ 1 µM); MIC (Escherichia coli W677; [25]): 0.78 µg/mL (≈ 2 µM); MIC [10, 23]: 1.56 µg/mL (≈ 4.01 µM); MIC (Proteus vulgaris OX19; [24]): 0.78 µg/mL (≈ 2 µM); MIC (Proteus rettgeri GN311; [27]): 1.56 µg/mL (≈ 4.01 µM); MIC (Serratia marcescens; Muller-Hinton medium, 37° C., 18 hours): 6.25 µg/mL (≈ 16 µM); MIC (Providencia sp. Pv16; [26]): 1.56 µg/mL (≈ 4.01 µM); antibacterial activity [18]: highest antibacterial activity |
